Here are results for one compound from patent US20090305954A1, “HISTIDINE-CONTAINING DIASTEREOMERIC PEPTIDES AND USES THEREOF” (Yeda Research and Development Co. Ltd., priority 2005, published 2009).

Data set [1] concerns PC3 human prostate cancer cell line. Description: XTT proliferation (cytotoxicity) assay, PC3. Format: cell-based. The following applies: PC3, pH 7.4, 24 h. The procedure:
(§1) The CL1 human prostate carcinoma (PC) cell line is an androgen-independent (AI) subclone of LNCaP cell line, which was generated by culturing androgen-dependent (AD) LNCaP cells in charcoal-stripped, […], as described (Patel et al. 2000). 22RV1 human PC cells are AI sub-clones of the AD prostatic adenocarcinoma CWR22 xenograft (Sramkoski et al. 1999). CL1 and 22RV1 (ATCC, USA) were grown in RPMI-1640 supplemented with 10% FCS (Biological Industries, Beit Haemek, Israel). PC3 and DU145 are androgen-insensitive (AI) (non-responsive), invasive human prostate cancer cell lines. NIH-3T3 mouse fibroblast cell lines (ATCC, USA) were grown in DMEM supplemented with 10% BS. Murine Lewis lung carcinoma (LLC) cell lines were also grown in DMEM medium supplemented with 10% fetal calf serum and antibiotics under the same conditions as above.
(§2) The anticancer activity of the diastereomers 1, 5 and 11-16, 36-39, 42 and 44 was examined against human CL1 prostate cancer, murine LLC (Lewis lung carcinoma), DU 145 and PC3 cell lines. The cell selectivity of the diastereomeric peptides was also studied by examining their effect on NIH-3T3 normal mouse fibroblasts cell line.
A 96-well plate (Falcon) was used for the XTT proliferation assay. Cancer cells were grown for 24 hours (day 1) in RPMI-1640 medium (5×10^3, 7×10^3, 1×10^4 and 7×10^3 cells/100 μl for LLC, CL1, 22RVI, DU 145 and PC3, respectively) supplemented with 10% fetal calf serum and antibiotics, at 37° C., in humidified atmosphere at 5% CO2 and 95% air, resulting in growth medium pH of 7.4. […]
In day 3, XTT reaction solution was prepared by adding to 100 μl aliquots of activation solution (sodium 3′-[1-(phenyl-aminocarbonyl)-3,4-tetrazolium]-bis(4-methoxy-6-nitro) benzene sulfonic acid hydrate and N-methyl dibenzopyrazine methyl sulfate; mixed in a proportion of 50:1) (protected from light and kept in −20° C.), the substrate. […] The optical density was read at wavelength of 450 nm in an ELISA plate reader. Cell viability was determined relative to the control and final results were recorded. […]
A general note: Tetrazolium dyes change colour on reduction, which living cells bring about.

Data set [2] has as its system Murine Lewis lung carcinoma (LLC) cell line. In words: XTT proliferation (cytotoxicity) assay, LLC. Format: cell-based. The procedure:
as §1, §2
(§3) A 96-well plate (Falcon) was used for the XTT proliferation assay. Cancer cells were grown for 24 hours (day 1) in RPMI-1640 medium ([…] cells/100 μl for LLC, CL1, 22RVI, DU 145 and PC3, respectively) supplemented with 10% fetal calf serum and antibiotics, at 37° C., in humidified atmosphere at 5% CO2 and 95% air, resulting in growth medium pH of 7.4. NIH-3T3 fibroblast cells (1×10^4 cells/100 μl) were grown in DMEM medium supplemented with 10% bovine calf serum and antibiotics under the same conditions as described above for the cancerous cells. Wells in the last two rows served as blanks (medium only, for measuring the background color of the medium) and 100% survival controls (cells and medium only without treatment), respectively.
(§4) In day 2, the peptides were dissolved in sterile PBS to a concentration of 200 μM (or 500 μM). The medium in the assay wells was replaced with 100 μl serum free medium. For the assays at pH 6, the medium was initially concentrated (×5 or ×10) and then diluted with double distilled water and addition of sodium carbonate. Before reaching the correct dilution, the medium was adjusted to pH 6 and then more water was added to reach the final dilution. The cells were grown in physiological pH, and the acidic pH was used only during the 24 hours incubation with the peptides. A sign for the correct acidity was a light yellow color of the medium. In line A of the plate, 160 μl of serum free medium was added, if the initial peptide concentration was 500 μM.
(§5) Peptide solutions, 100 μl (or 40 μl) were added to each assay well in line A, such that the final concentration of the peptide was […] and the volume 200 μl. The medium in the wells was mixed with multichannel pipette 5 times and 100 μl of it were transferred to the next row of wells (line B), to give a peptide concentration of 50 μM. The double dilution of the peptides continued downstream the plate in the same manner. The plates were then incubated for 24 h.
In day 3, XTT reaction solution was prepared by adding to 100 μl aliquots of activation solution (sodium 3′-[1-(phenyl-aminocarbonyl)-3,4-tetrazolium]-bis(4-methoxy-6-nitro) benzene sulfonic acid hydrate and N-methyl dibenzopyrazine methyl sulfate; mixed in a proportion of 50:1) (protected from light and kept in −20° C.), the substrate. 50 μl of XTT reaction solution were added to each well and the plates were incubated for 2 hours (37° C. and 5% CO2+95% air. In cases the incubation was not enough for the creation of the color, it was extended for up to 24 hours). The optical density was read at wavelength of 450 nm in an ELISA plate reader. Cell viability was determined relative to the control and final results were recorded. The results were confirmed using replications in at least three independent experiments. […]

Data set [3] is described as follows: Acute toxicity test in mice (intravenous). The following applies: for mortality: mice, i.v., one dose per day for 2 days. Format: in vivo. The procedure:
Acute toxicity of peptides 1, 13 and 16 was examined by intravenously injecting mice (n=3), each with one dose per day for 2 days of 0.5 ml solution containing peptides 1, 13 or 16 at 3, 9, 15, 20 and 30 mg/kg of body weight.
A week after injecting the peptides, blood samples were taken from the survived mice. […] Thus, the peptides 13 and 16 of the invention are not toxic even when administered at concentrations considerably higher than those necessary for their anticancer activity.

A further data set concerns 22RV1 human PC cells. Description: XTT proliferation (cytotoxicity) assay, 22RV1. Type of data set: cell-based. The procedure: as §1, §3, §4, §5
In day 3, XTT reaction solution was prepared by adding to 100 μl aliquots of activation solution (sodium 3′-[1-(phenyl-aminocarbonyl)-3,4-tetrazolium]-bis(4-methoxy-6-nitro) benzene sulfonic acid hydrate and N-methyl dibenzopyrazine methyl sulfate; mixed in a proportion of 50:1) (protected from light and kept in −20° C.), the substrate. 50 μl of XTT reaction solution were added to each well and the plates were incubated for 2 hours (37° C. and 5% CO2+95% air. In cases the incubation was not enough for the creation of the color, it was extended for up to 24 hours). The optical density was read at wavelength of 450 nm in an ELISA plate reader. Cell viability was determined relative to the control and final results were recorded. The results were confirmed using replications in at least three independent experiments. The LC50 for each peptide was obtained from the curve of cell viability versus concentration of peptide and taken from the concentration at which cell viability was 50%. The data shown in Table 1 are for only one experiment, but representative of all replications.

The subject of data set [4] is RFP-MDA-MB-231 breast cancer (BC) cells xenograft. Description: Inhibition of tumor growth in breast cancer xenografts. Type of data set: in vivo, female SCID/NCr mice. Here is the method: RFP-MDA-MB-231 breast cancer (BC) cells were injected (5×10^6 cells in 0.1 ml PBS) into the left mammary fat pad of 8-week-old female SCID/NCr mice (NCI, USA) as previously described ([…] et al., 2004). […] Mice were weighed and tumor volume was measured by a caliper (expressed in weight units (mg) (Papo et al., 2003) twice a week for a period of 45 days. Monitoring of solid breast tumor and its derived metastases was done by in vivo fluorescence. Tumor fluorescence intensity was monitored in real time by using in vivo optical imaging system (IVIS) and was recorded once a week during the period of 38 days.

The mark [5] stands for this setting: 5 mg/kg systemically, three times a week, 9 doses.

Square brackets hold non-standard residues; d marks the D form. Peptide text beside a SMILES is read from it.

Consider `CC(C)C[C@H](NC(=O)[C@H](CC(C)C)NC(=O)[C@@H](CCCCN)NC(=O)[C@H](CC(C)C)NC(=O)[C@H](CC(C)C)NC(=O)[C@H](Cc1c[nH]cn1)NC(=O)[C@@H](CCCCN)NC(=O)[C@@H](CC(C)C)NC(=O)[C@H](CC(C)C)NC(=O)[C@@H](CCCCN)NC(=O)[C@H](Cc1c[nH]cn1)NC(=O)[C@H](CC(C)C)NC(=O)[C@@H](CC(C)C)NC(=O)[C@H](CCCCN)NC(=O)[C@@H](N)CC(C)C)C(N)=O` [Peptide 13] (H-LK[dL]LH[dK]L[dL][dK]HLL[dK]LL-NH2), for which the “Lethal Concentration (LC50)” value amounted to 25 µg/mL in data set [1]; 12.5 µg/mL in data set [2] (pH 6, 24 h); 12.5 µg/mL in data set [2] (pH 7.4, 24 h); 12.5 µg/mL in the data set with 22RV1 human PC cells (22RV1, pH 6, 24 h); 12.5 µg/mL with 22RV1 human PC cells (22RV1, pH 7.4, 24 h). Also, the mortality entry is given as “No mortality” in data set [3] (3 mg/kg), “No mortality” in data set [3] (9 mg/kg), “no mortality” in data set [3] (15 mg/kg) and “no mortality” in data set [3] (20 mg/kg). The “blood differential and biochemistry tests” value in data set [3] (survived mice, a week after injection) is “in the range of normal values”. Further, the “tumor fluorescence (IVIS)” value in data set [4] (setting [5]) is recorded as “marked lowering”. Also, the “tumor size (caliper measurements)” value in data set [4] (setting [5]) is given as “major reduction”. Also, the “body weight of the animals compared with vehicle-treated control group” value in data set [4] (mouse, in vivo) is recorded as “increase”. For the same compound, in data set [4] (throughout the assay period), the condition of animals result was “good condition”.
